Assay results reported in PubChem BioAssay (NCI).
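Cultured in 96-well plates, cells were exposed to test compound for 48 hours across five concentrations. At the TGI there is no net growth.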

Key:
Experiment in all cases: growth of human tumour cells (NCI), 48 h
U251 CNS = tested on: U251 CNS
HCT-15 colon = tested on: HCT-15 colon
CAKI-1 renal = tested on: CAKI-1 renal
TK-10 renal = tested on: TK-10 renal
MDA-MB-231 breast = tested on: MDA-MB-231 breast
HT29 colon = tested on: HT29 colon
DU-145 prostate = tested on: DU-145 prostate
NCI-H226 lung = tested on: NCI-H226 lung
COLO 205 colon = tested on: COLO 205 colon
SK-MEL-28 melanoma = tested on: SK-MEL-28 melanoma
SF-268 CNS = tested on: SF-268 CNS
HOP-62 NSCLC = tested on: HOP-62 NSCLC
MDA-MB-435 = tested on: MDA-MB-435
SW-620 colon = tested on: SW-620 colon
CCRF-CEM leukemia = tested on: CCRF-CEM leukemia
NCI-H522 lung = tested on: NCI-H522 lung
SN12C renal = tested on: SN12C renal
SK-MEL-5 melanoma = tested on: SK-MEL-5 melanoma
SNB-19 CNS = tested on: SNB-19 CNS
A549 NSCLC = tested on: A549 NSCLC

| SMILES | TGI (U251 CNS) [µM] | TGI (HCT-15 colon) [µM] | TGI (CAKI-1 renal) [µM] | TGI (TK-10 renal) [µM] | TGI (MDA-MB-231 breast) [µM] | TGI (HT29 colon) [µM] | TGI (DU-145 prostate) [µM] | TGI (NCI-H226 lung) [µM] | TGI (COLO 205 colon) [µM] | TGI (SK-MEL-28 melanoma) [µM] | TGI (SF-268 CNS) [µM] | TGI (HOP-62 NSCLC) [µM] | TGI (MDA-MB-435) [µM] | TGI (SW-620 colon) [µM] | TGI (CCRF-CEM leukemia) [µM] | TGI (NCI-H522 lung) [µM] | TGI (SN12C renal) [µM] | TGI (SK-MEL-5 melanoma) [µM] | TGI (SNB-19 CNS) [µM] | TGI (A549 NSCLC) [µM] |
| --- | --- | --- | --- | --- | --- | --- | --- | --- | --- | --- | --- | --- | --- | --- | --- | --- | --- | --- | --- | --- |
| NC(=O)NC1NC(=O)NC1=O (centres undefined) | > 100 | > 100 | > 100 | > 100 | > 100 | > 100 | > 100 | > 100 | > 100 | > 100 | > 100 | > 100 | > 100 | > 100 | > 100 | > 100 | > 100 | > 100 | > 100 | > 100 |
| CCOC(=O)C1(CO)CSCCSC1 | > 100 | > 100 |  | > 100 | > 100 | > 100 | > 100 | > 100 | > 100 | > 100 | > 100 |  | > 100 | > 100 | > 100 | > 100 | > 100 | > 100 | > 100 | > 100 |
| N=C1C(=N)c2ccccc2-c2ccccc21.[Cl-].[Ru+2].c1cnc2c(c1)ccc1cccnc12.c1cnc2c(c1)ccc1cccnc12 | 73.9 | > 100 |  | > 100 |  | > 100 |  |  |  | 60.7 | > 100 | > 100 |  | 41.4 | 74.7 | 54.7 | > 100 | 34.4 |  | > 100 |
| CCOC(=O)/C=C/CC(C)(C)COC(C)=O |  | > 10 |  | > 10 | > 10 |  | > 10 | > 10 |  | > 10 | > 10 |  | > 10 | > 10 | > 10 | > 10 | > 10 |  |  | > 10 |
| CC(=O)c1c(-c2ccc(Cl)cc2)c(-c2ccc(Cl)cc2)n[nH]c1=O | > 100 | > 100 | > 100 | > 100 | 86.4 | > 100 | > 100 | > 100 | > 100 | > 100 | > 100 |  | > 100 | > 100 | > 100 |  | 93.3 | > 100 | > 100 | > 100 |
| C=C(C)C1CC=C(C)C(=O)C1 (centres undefined) | > 100 | > 100 | > 100 | > 100 | > 100 | > 100 | > 100 | > 100 | > 100 | > 100 | > 100 | > 100 | > 100 | > 100 | > 100 | > 100 | > 100 | > 100 | > 100 | > 100 |
| CCC(C)C(=O)OC1C(=O)OC2CC3C(C)=CC(=O)C(O)C3(C)C3C4(O)OCC23C1C(C)C4O (centres undefined) | < 0.0317 | 0.944 | 7.44 | 0.845 | 0.161 |  | 0.0977 | < 0.031 | 0.757 | 0.106 | 0.124 | 0.149 | 0.0723 | 0.694 | 0.0393 | < 0.0212 |  | 0.025 |  | 2.38 |
| Cc1[nH]c(=O)[nH]c(=O)c1/C=C/C(=O)NC(CO)CC(C)C (centres undefined) | > 375 | > 375 | 310 |  |  | > 375 |  | > 375 | > 375 | > 375 | > 375 | > 375 |  | > 375 | > 375 | > 375 | > 375 | > 375 | > 375 | > 375 |
| COc1ccc(C2C(C(=O)O)=C(CO)Oc3cc4c(cc32)OCO4)cc1 (centres undefined) | > 100 | > 100 | > 100 | > 100 |  | > 100 |  |  | > 100 | > 100 |  | > 100 |  | > 100 |  |  | > 100 | > 100 | > 100 | > 100 |
| NCC(Cl)C(O)c1cnc(N)[nH]1 (centres undefined) | > 100 | > 63.2 | 4.35 |  |  | > 37.1 |  | 17.6 | 5.51 | > 76.6 | > 73.8 | 5.98 |  | 3.89 | > 83.6 | 7.1 | 32.8 | 47.6 | 19.3 | 9.28 |
